{
  "source": "patent US8609833B2",
  "about": "“Purine derivatives as adenosine A1 receptor agonists and methods of use thereof” (Inotek Pharmaceuticals Corporation, priority 2004, dated 2013)",
  "key": {"[1]": {"molecular_target": "human recombinant A3 adenosine receptor (Homo sapiens (Human), UniProt P0DMS8)", "sequence (P0DMS8 whole entry)": "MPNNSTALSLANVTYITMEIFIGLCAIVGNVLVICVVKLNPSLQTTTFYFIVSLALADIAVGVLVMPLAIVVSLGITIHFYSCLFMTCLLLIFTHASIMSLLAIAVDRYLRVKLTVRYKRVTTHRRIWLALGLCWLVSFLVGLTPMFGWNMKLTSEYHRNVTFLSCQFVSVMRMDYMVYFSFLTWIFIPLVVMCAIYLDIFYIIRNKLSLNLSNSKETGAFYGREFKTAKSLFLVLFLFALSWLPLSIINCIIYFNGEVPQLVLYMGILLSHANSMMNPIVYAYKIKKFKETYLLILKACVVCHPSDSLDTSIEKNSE", "test": "Adenosine A3 receptor binding, displacement of [3H]NECA", "settings": "displacement of specific [3H]NECA binding, HEK cells; geometric mean", "method": "(§1) Membranes for radioligand binding experiments were prepared from fresh or frozen cells as described in Klotz et al., Naunyn-Schmiedeberg's Arch. […] The cell suspension was then homogenized in ice-cold hypotonic buffer (5 mM Tris/HCl, 2 mM EDTA, pH 7.4) and the homogenate was spun for 10 minutes (4° C.) at 1,000 g.\n(§2) Nonspecific binding was determined in the presence of 100 μM R-PIA and 1 mM theophylline, respectively. For details see Klotz et al., Naunyn-Schmiedeberg's Arch."}, "[2]": {"molecular_target": "human recombinant A2A adenosine receptor (Homo sapiens (Human), UniProt P29274)", "sequence (P29274 whole entry)": "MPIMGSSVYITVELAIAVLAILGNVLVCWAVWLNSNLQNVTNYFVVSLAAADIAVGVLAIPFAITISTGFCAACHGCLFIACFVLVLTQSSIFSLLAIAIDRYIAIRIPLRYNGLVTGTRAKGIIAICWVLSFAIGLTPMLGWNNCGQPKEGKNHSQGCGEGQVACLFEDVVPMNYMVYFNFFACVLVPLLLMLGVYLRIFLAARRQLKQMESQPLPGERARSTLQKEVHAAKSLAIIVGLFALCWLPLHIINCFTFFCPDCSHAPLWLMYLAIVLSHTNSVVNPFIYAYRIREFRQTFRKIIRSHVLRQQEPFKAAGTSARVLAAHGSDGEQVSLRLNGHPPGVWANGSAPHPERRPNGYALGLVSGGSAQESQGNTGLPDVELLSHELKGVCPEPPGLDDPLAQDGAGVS", "test": "Adenosine A2A receptor binding, displacement of [3H]NECA", "settings": "displacement of specific [3H]NECA binding, CHO cells; geometric mean", "method": "as §1, §2"}, "[3]": {"molecular_target": "human recombinant A1 adenosine receptor (Homo sapiens (Human), UniProt P30542)", "sequence (P30542 whole entry)": "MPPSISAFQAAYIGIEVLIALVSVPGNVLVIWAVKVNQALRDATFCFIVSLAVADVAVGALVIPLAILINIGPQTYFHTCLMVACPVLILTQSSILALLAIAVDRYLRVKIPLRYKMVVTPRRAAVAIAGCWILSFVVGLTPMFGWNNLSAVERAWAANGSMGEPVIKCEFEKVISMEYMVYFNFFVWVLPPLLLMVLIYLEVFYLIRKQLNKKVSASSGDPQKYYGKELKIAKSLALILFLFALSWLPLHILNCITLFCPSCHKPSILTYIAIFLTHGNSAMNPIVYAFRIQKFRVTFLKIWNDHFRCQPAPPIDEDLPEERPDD", "test": "Adenosine A1 receptor binding, displacement of [3H]CCPA", "settings": "for pKi: displacement of specific [3H]CCPA binding, CHO cells, geometric mean; for selectivity for the adenosine A1 receptor: versus human A2A and A3 receptors, Table 1", "method": "as §1\nThe affinities of selected Purine Derivatives for the adenosine A1 receptor were determined by measuring the displacement of specific [^3H]\nas §2"}, "male mice [4]": {"system": "male mice", "test": "Formalin pain model", "type": "in vivo, mouse", "settings": "1.0 mg/kg i.p.", "method": "Male mice (each having a body weight of 20-30 g) were subcutaneously administered 20 μl of a 1% formalin solution in formaldehyde (prepared by diluting a commercial 4% [w/v] stock formalin solution) into the dorsal region of their left hind paw. […] Both groups of animals were monitored for a reaction for 30 minutes post-treatment to determine how much time each animal spends licking the treated paw. The licking time in control group (vehicle pretreated animals) was then compared to the licking time in the treatment group in order to calculate the analgesic effect. The 30 minute reaction period was divided into two phases: an early phase which lasts from 0-5 minutes post-treatment, and a late phase which lasts from 10-30 minutes post-treatment."}, "male Wistar rats": {"system": "male Wistar rats", "test": "Mechanically induced pain threshold in carrageenan rat model", "type": "in vivo", "settings": "intrathecal, 5.0 mg/kg (FIG. 8); 15-120 min", "method": "Male Wistar rats (each weighing between 200-250 g, kept under pathogen-free conditions at 24-25° C. and provided with standard rat chow and water ad libitum) were anaesthetized via intraperitoneal administration of pentobarbital (50 mg/kg) and placed in a stereotaxic frame. The atlanto-occipital membrane was exposed and a PE-10 catheter (7.5 cm) was inserted through an incision into the subarachnoidal space. The external end of the catheter was then fixed to the skull, the wound was closed, and the rats were allowed to recover for 7 days post-surgery. Animals without neurological deficits were placed in a plexiglass observation chamber on a metal mesh surface and mechanical thresholds of the plantar surface of the paw were determined using a Dynamic Plantar Aesthesiometer (Ugo Basile, Italy) as follows: Following acclimation, the touch stimulator unit was placed under the animal's paw such that the filament was positioned under the target area of the paw. The filament was then lifted such that it contacted the pad of the animal's paw and continually exerted an increasing upward force on the paw until the animal withdrew the paw. The paw withdrawal threshold was measured 5 times in this manner in turns and the mean of the 5 values was calculated. […] Three hours after the carrageenan administration, the threshold values were measured again."}, "male BALB/c mice [5]": {"system": "male BALB/c mice", "test": "Lipopolysaccharide-induced mortality, survival study", "type": "in vivo, mouse", "settings": "0.03 mg/kg orally 30 min before LPS 55 mg/kg i.p.; followed over 72 h", "method": "(§3) Male BALB/c mice (6-8 weeks of age) were used in studies investigating lipopolysaccharide-induced cytokine production and survival. […] Serum was diluted 1:5 prior to being assayed for cytokines using species-specific ELISA kits (R & D Systems) for the chemokine MIP-1α and the cytokine TNF-α levels, which were expressed as pg/mL. […] The survival of the mice was followed over 72 h and expressed as a percentage of surviving mice at each time point. […] N=12-14 per group."}, "male CD rats": {"system": "male CD rats", "test": "Sciatic nerve ligation allodynia, Von Frey Hair test", "type": "in vivo, rat", "method": "The rats were then anesthetized via intraperitoneal administration of sodium pentobarbital (50 mg/kg). A skin incision was made at the upper ⅓ and ⅔ left thigh area of each rat and the left sciatic nerve was exposed and freed from the surrounding connective tissue. An 8-0 nylon suture was then used to tightly ligate the left sciatic nerve of each rat so that the dorsal ⅓ to ½ of the nerve thickness was trapped in the ligature. The incision was closed using 4-0 sterile suture."}, "[6]": {"system": "isolated perfused rat hearts", "test": "Ischemia-induced arrhythmias in isolated perfused rat hearts (LAD ligation)", "method": "Male Sprague-Dawley rats (having a body weight of 250 to 300 g) were heparinized using sodium heparin (1,000 U/kg i.p.), followed 10 minutes later by introduction of anesthesia via intraperitoneal administration of sodium pentobarbital (40 mg/kg). Once the animal was anesthetized, the thorax was opened, and the heart was rapidly removed and perfused through the ascending aorta using Krebs-Ringer buffer consisting of NaCl (118 mmol/liter), KCl (4.75 mmol/liter), KH2PO4 (1.18 mmol/liter), MgSO4 (1.18 mmol/liter), CaCl2 (2.5 mmol/liter), NaHCO3 (25 mmol/liter), and glucose (11 mmol/liter). A mixture of 95% O2 and 5% CO2 at 37° C. was bubbled through the perfusate. The heart was initially perfused at a constant pressure of 70 mm Hg. About 10 min after the constant pressure perfusion, perfusion was switched to constant flow perfusion achieved using a microtube pump. The perfusion pressure was maintained at the same level of constant pressure perfusion by adjusting flow rate. Once the flow rate was determined, it was maintained throughout the experiment. The hearts were stimulated by rectangular pulses at a rate of 5 Hz and 2-millisecond duration and twice the diastolic threshold, delivered from a stimulus isolation unit (ADInstruments Ltd, Australia). Rat hearts were perfused at constant pressure of 70 mmHg without pacing as described above. Bipolar epicardial electrocardiogram (ECG) was recorded by placing two electrodes on the surface of right appendage and apex. A stainless steel cannula was used as indifferent electrode. The ECG and heart rate were continuously monitored and data were recorded using a PowerLab data acquisition system (ADInstruments Ltd, Australia) in conjunction with a Macintosh computer, and analyzed using Chart.3 computer package. After a 20-minute equilibration period, regional ischemia was induced by ligation of the left anterior descending (LAD) coronary artery, and the ligature was released 30 minutes after occlusion. […] The incidences of ventricular tachycardia (VT) were almost same in control non-treated (12/12) and in treated hearts (20/22). […]"}, "[7]": {"system": "isolated perfused rat hearts", "test": "Function recovery after global ischemia/reperfusion in isolated perfused rat hearts", "settings": "1 nM, infused 10 min before 30 min no-flow ischemia, 40 min reperfusion", "method": "Male Sprague-Dawley rats (having a body weight of 250 to 300 g) were heparinized using sodium heparin (1,000 U/kg i.p.), followed 10 minutes later by introduction of anesthesia via intraperitoneal administration of sodium pentobarbital (40 mg/kg). Once the animal was anesthetized, the thorax was opened, and the heart was rapidly removed and perfused through the ascending aorta using Krebs-Ringer buffer consisting of NaCl (118 mmol/liter), KCl (4.75 mmol/liter), KH2PO4 (1.18 mmol/liter), MgSO4 (1.18 mmol/liter), CaCl2 (2.5 mmol/liter), NaHCO3 (25 mmol/liter), and glucose (11 mmol/liter). A mixture of 95% O2 and 5% CO2 at 37° C. was bubbled through the perfusate. The heart was initially perfused at a constant pressure of 70 mm Hg. About 10 min after the constant pressure perfusion, perfusion was switched to constant flow perfusion achieved using a microtube pump. The perfusion pressure was maintained at the same level of constant pressure perfusion by adjusting flow rate. Once the flow rate was determined, it was maintained throughout the experiment. The hearts were stimulated by rectangular pulses at a rate of 5 Hz and 2-millisecond duration and twice the diastolic threshold, delivered from a stimulus isolation unit (ADInstruments Ltd, Australia). Rat hearts were initially perfused at a constant pressure of 70 mm Hg using the procedure described above in section 6.12.1. […]"}, "male BALB/c mice [8]": {"system": "male BALB/c mice", "test": "Lipopolysaccharide-induced cytokine production (septic shock model)", "type": "in vivo, mouse", "settings": "0.03 mg/kg orally 30 min before LPS 1 mg/kg i.p.; measured 90 min after LPS", "method": "as §3"}, "male mice [9]": {"system": "male mice", "test": "Acute pain model, tail flick assay", "type": "in vivo, mouse", "settings": "3 mg/kg i.p.", "method": "The analgesic effects in mice was measured using an IITC model 33 tail-flick analgesia meter (IITC Inc., Woodland Hills, Calif.) at 0 minutes (baseline control), 5 minutes, 15 minutes, 30 minutes and 60 minutes (in some cases also 90 and 120 minutes) post-treatment. compound or vehicle treatment. Average recoding value of two readings was used for each time point. A baseline for every mouse between 2-4 seconds of latency and a 10-second cut-off time was set for the maximum possible effect of analgesia (% MPE). % MPE was calculated using the following formula: % MPE=[(post-drug value−baseline)/(cut-off time−baseline)]×100."}, "BALB/C mice": {"system": "BALB/C mice", "test": "Allodynia in streptozotocin model of diabetic neuropathy", "type": "in vivo, mouse", "settings": "1 mg/kg; 15, 30, 60 min after administration", "method": "BALB/C mice (6-8 weeks of age) were intraperitoneally administered streptozotocin (40 mg/kg, once per day for 5 consecutive days) to induce diabetes (blood glucose levels were greater than […])."}, "adult male Wistar rats": {"system": "adult male Wistar rats", "test": "Effect on heart rate in anesthetized rats", "type": "in vivo, rat", "text": "Adult male Wistar rats (each weighing from about 350 g to about 400 g) were anesthetized as in Example 19, then prepared for monitoring of blood pressure and heart rate."}},
  "note": "pKi: −log10 of the molar value.",
  "data": [
    {"compound": "Nc1nc(Cl)nc2c1ncn2[C@@H]1O[C@H](CO[N+](=O)[O-])[C@@H](O)[C@H]1O", "note": "[Compound 19]", "values": [
      {"measurement": "pKi", "setting": "[1]", "result": 6.05},
      {"measurement": "pKi", "setting": "[2]", "result": 5.00},
      {"measurement": "pKi", "setting": "[3]", "result": 8.15},
      {"measurement": "selectivity for the adenosine A1 receptor", "setting": "[3]", "result": "selective for the adenosine A1 receptor"}
    ]},
    {"compound": "Nc1ncnc2c1ncn2[C@@H]1O[C@H](CO[N+](=O)[O-])[C@@H](O)[C@H]1O", "note": "[Compound 18]", "values": [
      {"measurement": "pKi", "setting": "[1]", "result": 6.67},
      {"measurement": "pKi", "setting": "[2]", "result": 6.02},
      {"measurement": "pKi", "setting": "[3]", "result": 8.24},
      {"measurement": "selectivity for the adenosine A1 receptor", "setting": "[3]", "result": "selective for the adenosine A1 receptor"}
    ]},
    {"compound": "O=[N+]([O-])OC[C@H]1O[C@@H](n2cnc3c(NC4CCOC4)ncnc32)[C@H](O)[C@@H]1O", "note": "(stereo partly drawn) [Compound 25]", "values": [
      {"measurement": "pKi", "setting": "[1]", "result": 5.69},
      {"measurement": "pKi", "setting": "[2]", "result": "< 4.00"},
      {"measurement": "selectivity for the adenosine A1 receptor", "setting": "[3]", "result": "selective for the adenosine A1 receptor"}
    ]},
    {"compound": "O=[N+]([O-])OC[C@H]1O[C@@H](n2cnc3c(NC4CCCC4)nc(Cl)nc32)[C@H](O)[C@@H]1O", "note": "[Compound 16]", "values": [
      {"measurement": "pKi", "setting": "[2]", "result": 5.38}
    ]},
    {"compound": "O=[N+]([O-])OC[C@H]1O[C@@H](n2cnc3c(NC4CCCC4)ncnc32)[C@H](O)[C@@H]1O", "note": "[Compound 17]", "values": [
      {"measurement": "analgesic effect, paw licking time, late phase (10-30 min)", "setting": "male mice [4]", "result": "exhibits an analgesic effect during the late phase"},
      {"measurement": "response in first phase of formalin test", "setting": "male mice [4]; early phase 0-5 min", "result": "no response"},
      {"measurement": "paw withdrawal (pain) threshold", "setting": "male Wistar rats", "result": "effective for raising the pain threshold"},
      {"measurement": "pKi", "setting": "[1]", "result": 6.15},
      {"measurement": "lipopolysaccharide-induced mortality", "setting": "male BALB/c mice [5]", "result": "reduces"},
      {"measurement": "analgesic effect on allodynia, alone", "setting": "male CD rats; 0.1 mg/kg alone", "result": "exerts an analgesic effect"},
      {"measurement": "analgesic effect on allodynia, in combination with buprenorphine", "setting": "male CD rats; 0.1 mg/kg co-administered with buprenorphine 0.3 mg/kg", "result": "exerts an analgesic effect"},
      {"measurement": "total duration of both VT and VF", "setting": "[6]; 30 and 100 pM", "result": "significantly shortened"},
      {"measurement": "incidence of ventricular fibrillation (VF)", "setting": "[6]; treated hearts (2/22), 10, 30 and 100 pM, non-treated 58% (7/12)", "result": 9, "unit": "%"},
      {"measurement": "incidence of ventricular tachycardia (VT)", "setting": "[6]; treated hearts, 10, 30 and 100 pM, non-treated 12/12", "result": "20/22"},
      {"measurement": "pKi", "setting": "[2]", "result": 5.33},
      {"measurement": "+dp/dtmax (maximal rate of development of left ventricular pressure)", "setting": "[7]", "result": "significantly improved"},
      {"measurement": "lipopolysaccharide-induced plasma MIP-1α production", "setting": "male BALB/c mice [8]", "result": "reduces"},
      {"measurement": "lipopolysaccharide-induced plasma TNF-α production", "setting": "male BALB/c mice [8]", "result": "reduces"},
      {"measurement": "analgesic effect, tail flick (% MPE)", "setting": "male mice [9]", "result": "exerts a analgesic effect"},
      {"measurement": "analgesic effect on allodynia", "setting": "BALB/C mice", "result": "marked and lasting analgesic effect"},
      {"measurement": "heart rate", "setting": "adult male Wistar rats; 10 ng/kg/minute i.v. for 20 minutes, lowered from 440 beats per minute", "result": 370, "unit": "beats per minute"},
      {"measurement": "heart rate", "setting": "adult male Wistar rats; 1000 ng/kg/minute i.v. for 20 minutes, reduced from 440 beats per minute", "result": 150, "unit": "beats per minute"}
    ]}
  ]
}
